According to patent publication US5672715A, “Herbicidal substituted 3-aryl-pyrazoles” (Monsanto Company, priority 1995, dated 1997):
Values joined by “and” are separate entries in the source; they are usually repeats but may differ in a detail not shown here. Equal values may be shown once.

How the values were obtained:
Assay type in all cases: in vivo
[1] = test system: Barnyardgrass; test: pre-emergence herbicide test; details: 0.25 lb/A; for inhibition at 280.212 g/ha: Echinochloa crus-galli, pre-emergence, read-out: % plant inhibition
In short: (§1)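 Percent inhibition of emergence and growth was recorded roughly 14 days after seeding. Compound was incorporated into, or applied onto, a topsoil cover layer over seeds in pans kept in a greenhouse and watered from below.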

[2] = test system: Green Foxtail; test: pre-emergence herbicide test; details: Setaria viridis, pre-emergence; 0.25 lb/A; read-out: % plant inhibition
In short: as §1

[3] = test system: Downy Brome; test: pre-emergence herbicide test; details: Bromus tectorum, pre-emergence, 0.25 lb/A; read-out: % plant inhibition
In short: as §1

[4] = test system: Common Chickweed; test: pre-emergence herbicide test; details: pre-emergence, 0.25 lb/A; read-out: % plant inhibition
In short: as §1

[5] = test system: Bedstraw Catchweed; test: pre-emergence herbicide test; details: Galium aparine, pre-emergence, 0.25 lb/A; read-out: % plant inhibition
In short: as §1

[6] = test system: Wild Oats; test: pre-emergence herbicide test; details: Avena fatua, pre-emergence, 0.25 lb/A; read-out: % plant inhibition
In short: as §1

[7] = test system: Birdseye Speedwell; test: pre-emergence herbicide test; details: pre-emergence, 0.25 lb/A; read-out: % plant inhibition
In short: as §1

[8] = test system: Seedling Johnsongrass; test: pre-emergence herbicide test; details: 0.25 lb/A; for inhibition at 280.212 g/ha: Sorghum halepense, pre-emergence, read-out: % plant inhibition
In short: as §1

[9] = test system: Velvetleaf; test: pre-emergence herbicide test; details: 0.25 lb/A; for inhibition at 280.212 g/ha: Abutilon theophrasti, pre-emergence, read-out: % plant inhibition
In short: as §1

[10] = test system: Wheat; test: pre-emergence herbicide test; details: Triticum aestivum, pre-emergence, 0.25 lb/A; read-out: % plant inhibition
In short: as §1

[11] = test system: Giant Foxtail; test: pre-emergence herbicide test; details: 0.25 lb/A; for inhibition at 280.212 g/ha: Setaria faberi, pre-emergence, read-out: % plant inhibition
In short: as §1

[12] = test system: Corn; test: pre-emergence herbicide test; details: 0.25 lb/A; for inhibition at 280.212 g/ha: Zea mays, pre-emergence, read-out: % plant inhibition
In short: as §1

[13] = test system: Rape; test: pre-emergence herbicide test; details: pre-emergence, 0.25 lb/A; read-out: % plant inhibition
In short: as §1

[14] = test system: Blackgrass; test: pre-emergence herbicide test; details: Alopecurus myosuroides, pre-emergence, 0.25 lb/A; read-out: % plant inhibition
In short: as §1

[15] = test system: Barnyardgrass; test: post-emergence herbicide test; details: Echinochloa crus-galli, post-emergence, 0.25 lb/A; read-out: % plant inhibition
In short: (§2)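 Activity is given as percent inhibition of each species following foliar application. Pots were sprayed individually in a chamber once plants reached two to three weeks.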

[16] = test system: Green Foxtail; test: post-emergence herbicide test; details: Setaria viridis, post-emergence, 0.25 lb/A; read-out: % plant inhibition
In short: as §2

[17] = test system: Downy Brome; test: post-emergence herbicide test; details: Bromus tectorum, post-emergence, 0.25 lb/A; read-out: % plant inhibition
In short: as §2

[18] = test system: Common Chickweed; test: post-emergence herbicide test; details: post-emergence, 0.25 lb/A; read-out: % plant inhibition
In short: as §2

[19] = test system: Bedstraw Catchweed; test: post-emergence herbicide test; details: Galium aparine, post-emergence, 0.25 lb/A; read-out: % plant inhibition
In short: as §2

[20] = test system: Cocklebur; test: post-emergence herbicide test; details: Xanthium strumarium, post-emergence, 0.25 lb/A; read-out: % plant inhibition
In short: as §2

[21] = test system: Wild Oats; test: post-emergence herbicide test; details: Avena fatua, post-emergence, 0.25 lb/A; read-out: % plant inhibition
In short: as §2

[22] = test system: Birdseye Speedwell; test: post-emergence herbicide test; details: post-emergence, 0.25 lb/A; read-out: % plant inhibition
In short: as §2

[23] = test system: Seedling Johnsongrass; test: post-emergence herbicide test; details: Sorghum halepense, post-emergence, 0.25 lb/A; read-out: % plant inhibition
In short: as §2

[24] = test system: Velvetleaf; test: post-emergence herbicide test; details: Abutilon theophrasti, post-emergence, 0.25 lb/A; read-out: % plant inhibition
In short: as §2

[25] = test system: Wheat; test: post-emergence herbicide test; details: Triticum aestivum, post-emergence, 0.25 lb/A; read-out: % plant inhibition
In short: as §2

[26] = test system: Morning Glory; test: post-emergence herbicide test; details: Ipomoea, post-emergence, 0.25 lb/A; read-out: % plant inhibition
In short: as §2

[27] = test system: Giant Foxtail; test: post-emergence herbicide test; details: Setaria faberi, post-emergence, 0.25 lb/A; read-out: % plant inhibition
In short: as §2

[28] = test system: Corn; test: post-emergence herbicide test; details: Zea mays, post-emergence, 0.25 lb/A; read-out: % plant inhibition
In short: as §2

[29] = test system: Rape; test: post-emergence herbicide test; details: post-emergence, 0.25 lb/A; read-out: % plant inhibition
In short: as §2

[30] = test system: Blackgrass; test: post-emergence herbicide test; details: Alopecurus myosuroides, post-emergence, 0.25 lb/A; read-out: % plant inhibition
In short: as §2

[31] = test system: Soybean; test: post-emergence herbicide test; details: Glycine max, post-emergence, 0.25 lb/A; read-out: % plant inhibition
In short: as §2

[32] = test system: Cocklebur; test: pre-emergence herbicide test; details: 0.25 lb/A
In short: as §1

Row | Compound | % plant inhibition [1] | inhibition at 280.212 g/ha [1] | inhibition at 280.212 g/ha [2] | inhibition at 280.212 g/ha [3] | inhibition at 280.212 g/ha [4] | inhibition at 280.212 g/ha [5] | inhibition at 280.212 g/ha [6] | inhibition at 280.212 g/ha [7] | % plant inhibition [8] | inhibition at 280.212 g/ha [8] | % plant inhibition [9] | inhibition at 280.212 g/ha [9] | inhibition at 280.212 g/ha [10] | % plant inhibition [11] | inhibition at 280.212 g/ha [11] | inhibition at 280.212 g/ha [12] | inhibition at 280.212 g/ha [13] | inhibition at 280.212 g/ha [14] | inhibition at 280.212 g/ha [15] | inhibition at 280.212 g/ha [16] | other results
1 | COC(=O)c1cc(-c2nn(C)c(C(F)(F)F)c2C)c(F)cc1Cl [Compound 18] | 99% and 93% | 95% | 100% | 85% | 100% | 100% | 80% | 100% | 95% and 85% | 90% | 100% | 98% | 0% | 100% and 99% | 95% | 15% | 100% | 95% | 5% | 20% | inhibition at 280.212 g/ha [17]: 25%; inhibition at 280.212 g/ha [18]: 35%; inhibition at 280.212 g/ha [19]: 65%; inhibition at 280.212 g/ha [20]: 65%; inhibition at 280.212 g/ha [21]: 20%; inhibition at 280.212 g/ha [22]: 60%; inhibition at 280.212 g/ha [23]: 35%; inhibition at 280.212 g/ha [24]: 90%; inhibition at 280.212 g/ha [25]: 7%; inhibition at 280.212 g/ha [26]: 50%; inhibition at 280.212 g/ha [27]: 5%; inhibition at 280.212 g/ha [28]: 15%; inhibition at 280.212 g/ha [29]: 15%; inhibition at 280.212 g/ha [30]: 20%; inhibition at 280.212 g/ha [31]: 40%
2 | CCCOC(=O)c1cc(-c2nn(C)c(C(F)(F)F)c2C)c(F)cc1Cl [Compound 19] | 95% | 98% | 100% | 40% | 100% | 80% | 75% | 100% | 85% | 95% | 98% | 90% | 0% | 100% | 99% | 25% | 50% | 95% | 65% | 20% | % plant inhibition [32]: 70%; inhibition at 280.212 g/ha ([32]; Xanthium strumarium, pre-emergence, read-out: % plant inhibition): 60%; % plant inhibition [12]: 28%; inhibition at 280.212 g/ha [17]: 25%; inhibition at 280.212 g/ha [18]: 50%; inhibition at 280.212 g/ha [19]: 60%; inhibition at 280.212 g/ha [20]: 75%; inhibition at 280.212 g/ha [21]: 20%; inhibition at 280.212 g/ha [22]: 55%; inhibition at 280.212 g/ha [23]: 50%; inhibition at 280.212 g/ha [24]: 90%; inhibition at 280.212 g/ha [25]: 10%; inhibition at 280.212 g/ha [26]: 35%; inhibition at 280.212 g/ha [27]: 65%; inhibition at 280.212 g/ha [28]: 20%; inhibition at 280.212 g/ha [29]: 15%; inhibition at 280.212 g/ha [30]: 20%; inhibition at 280.212 g/ha [31]: 50%
